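Tested at 5 concentrations; 48 h exposure; 96-well plates; endpoints linearly interpolated, else capped at highest concentration. TGI marks complete inhibition of growth.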 Where a SMILES comes first, the peptide text is derived from it. The star is where a group is joined. Boc = CC(C)(C)OC(=O)*; OBn = c1ccc(CO*)cc1
Key:
Assay in all cases: NCI anticancer screen, dose series, 48 h
NCI-H23 lung = test system: NCI-H23 lung
LOX IMVI melanoma = test system: LOX IMVI melanoma
A498 renal = test system: A498 renal
UACC-257 melanoma = test system: UACC-257 melanoma
OVCAR-5 ovarian = test system: OVCAR-5 ovarian
MCF7 breast = test system: MCF7 breast
SNB-19 CNS = test system: SNB-19 CNS
HCC-2998 colon = test system: HCC-2998 colon
CAKI-1 renal = test system: CAKI-1 renal
MDA-MB-435 = test system: MDA-MB-435
OVCAR-3 ovarian = test system: OVCAR-3 ovarian
OVCAR-4 ovarian = test system: OVCAR-4 ovarian
HS 578T breast = test system: HS 578T breast
SN12C renal = test system: SN12C renal
HCT-116 colon = test system: HCT-116 colon
BT-549 breast = test system: BT-549 breast

Structure (SMILES)	TGI (NCI-H23 lung)	TGI (LOX IMVI melanoma)	TGI (A498 renal)	TGI (UACC-257 melanoma)	TGI (OVCAR-5 ovarian)	TGI (MCF7 breast)	TGI (SNB-19 CNS)	TGI (HCC-2998 colon)	TGI (CAKI-1 renal)	TGI (MDA-MB-435)	TGI (OVCAR-3 ovarian)	TGI (OVCAR-4 ovarian)	TGI (HS 578T breast)	TGI (SN12C renal)	TGI (HCT-116 colon)	TGI (BT-549 breast)
Cc1ccc(S(=O)(=O)n2c3c(c4ccccc42)CCN2CCC(Br)C[C@@H]32)cc1 (stereo partly specified)	26.6 µM	27.6 µM	41 µM	21.1 µM	31.9 µM	22.8 µM	28.7 µM	28.4 µM	28.6 µM	14.4 µM	23.6 µM	27 µM	28.5 µM			
COC(=O)CC(=O)Nc1sccc1S(=O)(=O)c1ccccc1	> 100 µM		> 100 µM	> 100 µM	> 100 µM	> 100 µM	> 100 µM	41.6 µM	> 100 µM	> 100 µM	43.5 µM	> 100 µM	> 100 µM	> 100 µM	> 100 µM	> 100 µM
O=C1CCCCC/C1=C\c1ccc(Cl)cc1	> 100 µM	> 100 µM	> 100 µM	> 100 µM	> 100 µM		> 100 µM	96.2 µM	> 100 µM	58.2 µM	> 100 µM	84.9 µM	57.8 µM	> 100 µM	> 100 µM	> 100 µM
COc1cc(Oc2nc3c(N)cc(C(F)(F)F)cc3nc2-c2ccccc2)cc(OC)c1OC	> 63.6 µM	> 100 µM	81.5 µM	43.9 µM	> 100 µM	> 50.5 µM	27.6 µM	> 55.1 µM	> 45.2 µM		13.5 µM	> 100 µM	> 53.8 µM	> 100 µM	> 45.3 µM	34.5 µM
O=C(Cc1ccccc1)NNc1nc(NNC(=O)c2ccncc2)nc(Nc2cccc(Cl)c2)n1	> 10 µM	> 10 µM		> 10 µM		> 10 µM		> 10 µM	> 10 µM			> 10 µM	> 10 µM	> 10 µM		> 10 µM
O=C(CCCN1CCC2(CC1)CC(=O)N(N1CCCCCC1)C2=O)c1ccc(F)cc1	> 100 µM	> 100 µM	> 100 µM	> 100 µM	> 100 µM	> 100 µM			> 100 µM	> 100 µM	> 100 µM	> 100 µM	> 100 µM	> 100 µM	> 100 µM	> 100 µM
CC(C)(C)OC(=O)N(CCNS(=O)(=O)c1cccc2cnccc12)CCC(=O)ON1C(=O)CCC1=O	> 100 µM	> 100 µM		> 100 µM	> 100 µM	> 100 µM	> 100 µM			> 100 µM	> 100 µM	> 100 µM	> 100 µM	> 100 µM	> 100 µM	> 100 µM
C=CCCCC1CCCNC1=S (stereo unspecified)	> 100 µM		> 100 µM	> 100 µM	> 100 µM	> 100 µM	> 100 µM	> 100 µM	> 100 µM	> 100 µM	> 100 µM	> 100 µM	> 100 µM	> 100 µM	> 100 µM	> 100 µM
CC1=N[C@](C)(C2CC3C=CC2C3=O)COC1=O (stereo partly specified)	> 100 µM		> 100 µM	> 100 µM	> 100 µM	> 100 µM	> 100 µM	> 100 µM	> 100 µM	> 100 µM	> 100 µM	> 100 µM	> 100 µM	> 100 µM	> 100 µM	> 100 µM
CC(=O)N(CN1C(=O)CCC1C(=O)O)c1cccc(O)c1 (stereo unspecified)	> 100 µM	> 100 µM	> 100 µM	> 100 µM	> 100 µM	> 100 µM	> 100 µM	> 100 µM	> 100 µM	> 100 µM	> 100 µM	> 100 µM	> 100 µM	> 100 µM	> 100 µM	
CC(=O)O[C@H]1CCn2c3c(c(C)c21)C(=O)C(N1CC1)=C(C)C3=O	> 10 µM	> 10 µM		> 10 µM	> 10 µM	> 10 µM	> 10 µM	> 10 µM	> 10 µM	> 10 µM	> 10 µM	> 10 µM	> 10 µM	> 10 µM	> 10 µM	> 10 µM
CC(NC(=O)C(Cc1ccccc1)NC(=O)C(Cc1ccccc1)NC(=O)OC(C)(C)C)C(=O)OCc1ccccc1 (stereo not drawn) (Boc-Phe-Phe-Ala-OBn; configuration not given here)	> 100 µM	> 100 µM	> 100 µM	> 100 µM	> 100 µM	> 100 µM		> 100 µM		> 100 µM	> 100 µM		> 100 µM	> 100 µM	> 100 µM	> 100 µM
NNCCc1n[nH]c(=O)n1N	> 100 µM	> 100 µM		> 100 µM	> 100 µM	> 100 µM	> 100 µM	> 100 µM	> 100 µM	> 100 µM	> 100 µM	> 100 µM	> 100 µM	> 100 µM	> 100 µM	> 100 µM
O=C1/C(=C/c2c(Cl)[nH]c3ccccc23)c2ccccc2N1c1ccccc1	19.3 µM	15.6 µM	40.8 µM	23.8 µM	81.9 µM	30.9 µM	> 100 µM	20.7 µM	> 100 µM	4.12 µM	6.26 µM		30.2 µM	20.3 µM	15.6 µM	21.2 µM
O=C1CC(C(=O)N2CCCCC2)n2c(=O)n(-c3ccccc3)c(=O)n2C1 (stereo unspecified)	> 100 µM	> 100 µM		> 100 µM	> 100 µM	> 100 µM	> 100 µM	> 100 µM	> 100 µM		> 100 µM		> 100 µM		> 100 µM	> 100 µM
CC(=O)N1N(c2ccc([N+](=O)[O-])cc2)C(=O)C1(C)C	37.8 µM	26.5 µM	> 100 µM		44.3 µM	42.5 µM	> 100 µM	29.7 µM		63.1 µM	40.5 µM	35 µM	> 100 µM	32.5 µM		24.2 µM

Structure (SMILES)	TGI (NCI-H23 lung)	TGI (LOX IMVI melanoma)	TGI (A498 renal)	TGI (UACC-257 melanoma)	TGI (OVCAR-5 ovarian)	TGI (MCF7 breast)	TGI (SNB-19 CNS)	TGI (HCC-2998 colon)	TGI (CAKI-1 renal)	TGI (MDA-MB-435)	TGI (OVCAR-3 ovarian)	TGI (OVCAR-4 ovarian)	TGI (HS 578T breast)	TGI (SN12C renal)	TGI (HCT-116 colon)	TGI (BT-549 breast)
COc1cccc2c1C(=O)c1ccc3cc(CCl)cc(O)c3c1C2=O	1.27 µM	0.595 µM	1.7 µM	0.698 µM	1.71 µM	1.31 µM	1.86 µM	1.46 µM	1.7 µM	0.46 µM	0.696 µM		2.32 µM	0.334 µM	0.29 µM	1.39 µM
CC12c3c4cc(Br)cc3Oc3cc(Br)cc(c31)Oc1cc(Br)cc(c12)O4	> 100 µM	51.1 µM		> 100 µM	> 100 µM	> 100 µM	> 100 µM	> 100 µM		> 100 µM	28.2 µM	> 100 µM	> 100 µM	83.4 µM	> 100 µM	52.7 µM
C/C(CC1SCCCS1)=C(/C)CC1SCCCS1	> 100 µM	> 100 µM	> 100 µM		> 100 µM	> 100 µM	> 100 µM	> 100 µM	> 100 µM	> 100 µM	> 100 µM	> 100 µM	> 100 µM	> 100 µM	> 100 µM	
NC(CCC(=O)O)(CCC(=O)O)CCC(=O)O	> 100 µM			> 100 µM	> 100 µM	> 100 µM	> 100 µM		> 100 µM	> 100 µM			> 100 µM	> 100 µM	> 100 µM	> 100 µM
Cn1c(=O)c2c(ncn2CCCCOc2ccc3c(c2)[n+]([O-])nc(N)[n+]3[O-])n(C)c1=O	> 100 µM	> 100 µM		> 100 µM		> 100 µM	> 100 µM	52.6 µM	> 100 µM	> 100 µM	> 100 µM	> 100 µM	> 100 µM	> 100 µM	> 100 µM	70.6 µM
CCOc1ncn(-c2ccc(NC(=S)NC34CC5CC(CC(C5)C3)C4)cc2)n1	> 100 µM	> 100 µM		> 100 µM	> 100 µM	> 100 µM	> 100 µM	> 100 µM		> 100 µM	> 100 µM	> 100 µM		> 100 µM	> 100 µM	> 100 µM
COc1ccc(C(=O)/C=C/c2cccnc2)cc1OC	22.9 µM	3.81 µM	27.8 µM	29 µM	24.6 µM	13 µM	27.6 µM		15.7 µM	30.1 µM	11 µM	25.7 µM	49.6 µM	18.3 µM	16.3 µM	19.3 µM
COC(=O)C1CCC(=O)N1C(c1ccccc1)c1cc(OC)c(OC)c(OC)c1 (stereo unspecified)	> 100 µM	> 100 µM	> 100 µM	> 100 µM	> 100 µM	> 100 µM	> 100 µM	> 100 µM	> 100 µM	59.7 µM	> 100 µM	> 100 µM		> 100 µM	> 100 µM	> 100 µM
COC(=O)[C@@]12C(=O)C(C)C(=O)[C@]1(C)C(C)=C[C@H]1[C@]3(C=O)CC[C@H](OC(C)=O)C(C)(C)[C@H]3CC[C@@]12C (stereo partly specified)	> 100 µM	> 100 µM	> 100 µM	> 100 µM	> 100 µM		> 100 µM	> 100 µM	> 100 µM	> 100 µM	> 100 µM	> 100 µM	> 100 µM		> 100 µM	> 100 µM
CCOC(=O)Nc1nn(C)c(=NCc2ccccc2)s1		> 100 µM	> 100 µM	> 100 µM	> 100 µM	> 100 µM	> 100 µM		> 100 µM	> 100 µM	> 100 µM	> 100 µM	> 100 µM	> 100 µM	> 100 µM	> 100 µM
CC(C)(CO)NC(=O)Nc1c(C(F)(F)F)cc(-c2ccccc2)[nH]c1=O	> 100 µM	> 100 µM	> 100 µM	> 100 µM	> 100 µM	> 100 µM	> 100 µM	> 100 µM	> 100 µM	> 100 µM	> 100 µM		> 100 µM	> 100 µM	> 100 µM	> 100 µM
CC1(C)OC(=O)C2(O1)C(=O)C1CCCCC12 (stereo unspecified)	> 100 µM		> 100 µM	> 100 µM	> 100 µM	> 100 µM	> 100 µM	> 100 µM	> 100 µM	> 100 µM	> 100 µM	> 100 µM	> 100 µM	> 100 µM	> 100 µM	> 100 µM
O=C(CNC(=O)OCc1ccccc1)NCCCCC(NC(=O)OCc1ccccc1)C(=O)NC(CCCCNC(=O)CNC(=O)OCc1ccccc1)C(=O)OCc1ccccc1 (stereo unspecified)	> 62.5 µM	> 62.5 µM	> 62.5 µM	> 62.5 µM	> 62.5 µM	> 62.5 µM	> 62.5 µM	> 62.5 µM	> 62.5 µM	> 62.5 µM	> 62.5 µM	> 62.5 µM		> 62.5 µM	> 62.5 µM	> 62.5 µM
CC(C)(C)[Si](C)(C)OCCOCn1cc(F)c(=O)[nH]c1=O	> 100 µM	> 100 µM	> 100 µM	> 100 µM	> 100 µM	> 100 µM	> 100 µM		> 100 µM	> 100 µM	> 100 µM	> 100 µM	> 100 µM	> 100 µM	> 100 µM	> 100 µM
O=c1oc2c(ccc3ccccc32)cc1C1=CSC2=NCCN12	> 100 µM	> 100 µM		> 100 µM		67.8 µM	> 100 µM	38.7 µM	> 100 µM	> 100 µM	> 100 µM	> 100 µM	> 100 µM	> 100 µM	> 100 µM	71.1 µM
O=c1oc(-c2ccccc2)c(-c2ccccc2)n1-c1ccc(Br)cc1	85.3 µM	> 100 µM	> 100 µM	> 100 µM	> 100 µM	> 100 µM	> 100 µM		> 100 µM	> 100 µM	> 100 µM	96.4 µM	> 100 µM	> 100 µM	> 100 µM	> 100 µM
